Patent US20170202973A1 (GENENTECH, INC., priority 2009, published 2017)
Where two headings read alike, the source gives them in different places.

Assays:
[1] = tested on: HER2-positive metastatic breast cancer; conditions: for Patients Censored, % / Patients Censored, number / Patients Progressed, % / Patients Progressed, number: PFS analysis; for CR / Clinical Benefit Rate / Missing tumor response / Objective Response Rate, % / PD / PR / UE: N = 110, updated analysis
Procedure: The analysis of objective response rate was conducted with patient data collected through approximately 26 weeks after the last patient is enrolled in the study. This study enrolled patients with HER2-positive MBC. […] Patients will be required to have HER2-positive status, as evidenced by either 3+ HER2 protein overexpression determined by immunohistochemistry (IHC) or HER2 gene amplification determined by FISH.
Efficacy Assessments: Tumor responses were categorized as complete response (CR), partial response (PR), stable disease (SD), or progressive disease (PD) according to the Response Evaluation Criteria for Solid Tumors (RECIST). Tumor assessments (CT and/or magnetic resonance imaging [MRI] scans) were performed approximately every 6 weeks irrespective of dose delays, interruptions, or reductions. Bone and brain scans (either CT or Mill) were performed at baseline and if clinically indicated during the study. Patient management decisions were made based on tumor assessments performed by investigators. The primary study endpoints related to response were determined by an independent radiologic review of patient scans, with assessments based on investigator reporting being secondary. If each non-target lesion cannot be assessed at a follow-up tumor assessment timepoint, patients may still be considered evaluable for timepoint response as long as all target lesions are measured. Patients with non-target lesions that were not assessed at a timepoint were assessed as having a partial response, stable disease, or progressive disease. All lesions, target and non-target, were assessed before a response was considered confirmed. To reduce the frequency of unevaluable non-target lesions, bone lesions visible on baseline CT scan as non-target lesion(s) for follow-up, were compared with bone lesions identified on the baseline bone scan where possible if lesions are not visible on both modalities or as easily and reproducibly assessed.
Efficacy Assessments: An assessment of the objective response rate, the primary objective of this trial, was based on the RECIST and confirmed by independent review of baseline and follow-up assessments obtained every 6 weeks. All known sites of disease should be reassessed at each timepoint whenever possible. Because bone involvement is a common finding in patients with MBC, a bone scan at baseline may be conducted. In addition, patients with non-target lesions that were not assessed at a timepoint were assessed as having a partial response, stable disease, or progressive disease. All lesions, target and non-target (including bone lesions), were assessed before a complete response can be considered confirmed.
Efficacy Outcome Measures: The primary efficacy outcome measure is objective response (defined as a complete or partial response determined on two consecutive occasions 4 weeks apart), as assessed through independent radiologic review using RECIST. The secondary efficacy outcome measures are as follows: Duration of objective response, as assessed through independent radiologic review using RECIST; PFS, as assessed through independent radiologic review using RECIST; CBR based on independent radiologic review using RECIST; Objective response based on investigator assessments using RECIST; Duration of objective response based on investigator assessments using RECIST; PFS based on investigator assessments using RECIST; and CBR based on investigator assessments using RECIST.
The analysis of objective response rate was conducted with patient data collected through approximately 26 weeks after the last patient was enrolled in the study. In addition, the final analysis of safety and all secondary and exploratory endpoints will be updated with sufficient data when available (estimated to be approximately 10 months after the last patient is enrolled in the study). After the final analysis, the study was closed. […] This study enrolled patients with HER2-positive MBC.

[2] = cited from earlier work
[3] = Investigator, N = 110, initial analysis
[4] = Patients with HER2+ retrospectively confirmed, n = 76, INV, initial analysis
[5] = Patients with HER2+ retrospectively confirmed, n = 76, IRF, initial analysis
[6] = Patients with HER2+ retrospectively confirmed, n = 80, INV, updated analysis
[7] = Patients with HER2+ retrospectively confirmed, n = 80, IRF, updated analysis
[8] = Patients with HER2 normal, n = 15, INV, initial analysis
[9] = Patients with HER2 normal, n = 15, IRF, initial analysis
[10] = of 110 treated, 70 discontinued, data cutoff

trastuzumab-MCC-DM1 [T-DM1]
Patients Censored, % ([1]; INV, all treated patients): 45.5%
Patients Censored, number ([1]; INV, all treated patients): 50 patients
Patients Progressed, % ([1]; INV, all treated patients): 54.5%
Patients Progressed, number ([1]; INV, all treated patients): 60 patients
PFS (months) 25-75% ([1]; INV, all treated patients): 2.8-11.1 months
Missing tumor response, % ([1]; IRF, N = 110, initial analysis): (0.9%)
PD, % ([1]; IRF, N = 110, initial analysis): (18.2%)
PR, % ([1]; IRF, N = 110, initial analysis): (32.7%)
UE, % ([1]; IRF, N = 110, initial analysis): (1.8%)
CR ([1]; IRF): 0%
Clinical Benefit Rate ([1]; IRF): 48.2%
Missing tumor response ([1]; IRF): 0.9%
Objective Response Rate, % ([1]; IRF): 34.5%
PD ([1]; IRF): 18.2%
PR ([1]; IRF): 34.5%
UE ([1]; IRF): 1.8%
Patients Censored, % ([1]; IRF, all treated patients): 54.5%
Patients Censored, number ([1]; IRF, all treated patients): 60 patients
Patients Progressed, % ([1]; IRF, all treated patients): 45.5%
Patients Progressed, number ([1]; IRF, all treated patients): 50 patients
PFS (months) 25-75% ([1]; IRF, all treated patients): 2.6-9.7 months
PFS (months) median ([1]; IRF, all treated patients, initial analysis): 7.3 months
median PFS ([1]; IRF, updated analysis, all treated patients, 95% CI (4.2-8.4)): 6.9
CR, % [1, 3]: (1.8%)
Missing tumor response, % [1, 3]: (2.7%)
PD, % [1, 3]: (13.6%)
PR, % [1, 3]: (28.2%)
UE, % [1, 3]: (0.9%)
CR ([1]; Investigator): 4.5%
Clinical Benefit Rate ([1]; Investigator): 46.4%
Missing tumor response ([1]; Investigator): 0.9%
Objective Response Rate, % ([1]; Investigator): 32.7%
PD ([1]; Investigator): 14.5%
PR ([1]; Investigator): 28.2%
UE ([1]; Investigator): 0.9%
Clinical benefit rate, % [1, 4]: 47.4%
ORR, % [1, 4]: 36.8%
Clinical benefit rate, % [1, 5]: 52.6%
ORR, % [1, 5]: 39.5%
Clinical benefit rate, % [1, 6]: (53.8%)
ORR, % [1, 6]: (40.0%)
Clinical benefit rate, % [1, 7]: (55.0%)
ORR, % [1, 7]: (41.3%)
Clinical benefit rate, % [1, 8]: 20.0%
ORR, % [1, 8]: 13.3%
Clinical benefit rate, % [1, 9]: 26.7%
ORR, % [1, 9]: 20.0%
patients that discontinued treatment with progressive disease, % [1, 10]: 52.7%
patients that discontinued treatment with progressive disease, number [1, 10]: 58 patients

COc1cc2cc(c1Cl)N(C)C(=O)C[C@H](OC(=O)[C@H](C)N(C)C(C)=O)[C@]1(C)O[C@H]1[C@H](C)[C@@H]1C[C@@](O)(NC(=O)O1)[C@H](OC)/C=C/C=C(\C)C2 [maytansine]
dose-limiting toxicity (DLT) ([2]; approximately 800 patients, 2.0 mg/m^2 every 3 weeks, single dose or 3 consecutive days): gastrointestinal
activity in the clinic ([2]; at doses that could be safely delivered): modest
